Experimental data as given in ChEMBL document CHEMBL1127535, “Molecular similarity, quantitative chirality, and QSAR for chiral drugs” (J Med Chem, 1994).

How the values were obtained:
[1] = target: D(2) dopamine receptor (Rattus norvegicus) (UniProt P61169); assay: Displacement of spiperone from dopamine receptor D2 of rat brain membrane
[2] = target: Sigma non-opioid intracellular receptor 1 (Rattus norvegicus) (UniProt Q9R0C9); assay: Displacement of (+)-3PPP from sigma receptor of rat brain membrane
Chain of Sigma non-opioid intracellular receptor 1 (Rattus norvegicus) (Q9R0C9 whole entry): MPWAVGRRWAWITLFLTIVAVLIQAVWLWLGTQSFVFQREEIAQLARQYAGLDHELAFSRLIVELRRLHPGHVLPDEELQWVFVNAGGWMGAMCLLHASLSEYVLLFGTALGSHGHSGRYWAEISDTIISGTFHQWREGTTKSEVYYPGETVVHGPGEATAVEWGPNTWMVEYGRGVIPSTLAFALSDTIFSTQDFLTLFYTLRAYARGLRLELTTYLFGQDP

Chain of D(2) dopamine receptor (Rattus norvegicus) (P61169 whole entry): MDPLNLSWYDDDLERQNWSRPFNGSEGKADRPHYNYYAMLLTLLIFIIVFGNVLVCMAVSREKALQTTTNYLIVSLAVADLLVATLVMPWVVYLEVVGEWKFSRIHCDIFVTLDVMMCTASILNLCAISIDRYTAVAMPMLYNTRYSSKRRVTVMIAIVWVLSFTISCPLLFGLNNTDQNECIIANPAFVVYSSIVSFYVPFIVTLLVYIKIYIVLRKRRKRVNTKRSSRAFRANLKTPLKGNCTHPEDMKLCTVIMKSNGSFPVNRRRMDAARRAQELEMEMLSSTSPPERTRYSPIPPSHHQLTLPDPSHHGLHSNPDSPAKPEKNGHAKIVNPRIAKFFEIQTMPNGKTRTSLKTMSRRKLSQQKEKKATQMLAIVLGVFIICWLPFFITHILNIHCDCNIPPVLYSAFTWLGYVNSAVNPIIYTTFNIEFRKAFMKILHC

For CCCCN1CCC[C@H](c2cccc(O)c2)C1, the Log IC50 [1] was 0.43 µM and the Log IC50 [2] was 2.05 µM.

CCc1ccc(N2CCC[C@H](c3cccc(O)c3)C2)cc1 gave a Log IC50 [1] of 0.09 µM and a Log IC50 [2] of 2.1 µM.

For Oc1cccc([C@@H]2CCCNC2)c1, the Log IC50 [1] was 0.24 µM and the Log IC50 [2] was 1.19 µM.

With CCCN1CCC[C@@H](c2cccc(O)c2)C1 the Log IC50 [2] was 0.81 µM.

In the case of CN1CCC[C@H](c2cccc(O)c2)C1, the Log IC50 [1] was 0.61 µM and the Log IC50 [2] was 0.43 µM.

With Oc1cccc([C@H]2CCCNC2)c1 the Log IC50 [1] was 0.36 µM and the Log IC50 [2] was 0.66 µM.

For CC(C)N1CCC[C@@H](c2cccc(O)c2)C1, the Log IC50 [1] was 0.45 µM and the Log IC50 [2] was 0.68 µM.

Work on CC(C)N1CCC[C@H](c2cccc(O)c2)C1 yielded a Log IC50 [1] of 1.08 µM and a Log IC50 [2] of 0.61 µM.

CCCN1CCC[C@H](c2cccc(O)c2)C1 was tested, and the Log IC50 [2] was 1.52 µM.

CCc1ccc(N2CCC[C@@H](c3cccc(O)c3)C2)cc1 gave a Log IC50 [1] of 1.36 µM and a Log IC50 [2] of 1.8 µM.

CCCCN1CCC[C@@H](c2cccc(O)c2)C1 was tested, and the Log IC50 [1] was 0.56 µM and the Log IC50 [2] was 1.51 µM.
